Test results published in patent publication US20070224273A1, “Multifunctional Supramolecular Hydrogels as Biomaterials” (priority 2004, published 2007).
Peptide text beside a SMILES is read from it. * marks the point of attachment. Butanoyl(4-pyren-1-yl) = O=C(CCCc1ccc2ccc3cccc4ccc1c2c34)*; Acetyl(1-naphthyl) = O=C(Cc1cccc2ccccc12)*

What was measured:
[1] = Solubility in water of pentapeptide derivatives; type: physicochemical
Excerpt: Most of the compounds can gel water under appropriate pH. When the pH becomes higher than the listed value, the gel tends to become a clear solution, while a lower pH always leads to precipitation rather than homogeneous gel formation. GAGAS (SEQ ID No. 1), the epitope with the least bulk side chains, appears to be quite hydrophilic in water.
However, it is still not a good candidate as a hydrophilic tail in a hydrogelator. […] Hydrogel by Fmoc-GVGVP can be obtained by carefully adjusting the pH to 4.8, with the hydrogel not being thermal-reversible. […] Upon heating, it also melts. All three compounds, with VPGVG as the hydrophilic part, fail to gel water at the tested condition. They all show sharp solubility changes with pH and low melting points.

[2] = Hydrogelation in water (ability, concentration, pH); type: physicochemical
Protocol: Typically, after 2 mg of 1 was suspended in 1.0 mL of water, the increase of temperature to 80° C. gave a clear solution. Cooling the solution to room temperature led to a slightly opaque hydrogel (Gel I, FIG. 20A). Similar procedure afforded the hydrogel of 2 (Gel II, FIG. 20B).

[3] = Artificial enzyme (hemin) activity assay, oxidation of pyrogallol by H2O2; type: biochemical
Protocol: Activity assay: Using the oxidation of pyrogallol (10.0 mM) by H2O2 (40.0 mM) as a model reaction and fixing the total concentration of Hemin to 5 μM in the mixture, we examined the activity of Hemin by monitoring the absorbance (420 nm) of purpurogallin, the product of Hemin-catalyzed oxidation of pyrogallol. The catalytic reaction course of the artificial enzyme was measured by monitoring the increase in absorbance along with time change. The absorbance increase in the first minute was defined to be the initial rate. The Lineweaver-Burk plots constructed by the reaction initial rates at different pyrogallol concentrations were used to estimate their kinetic constant values. The other substrates, including o-phenyldiamine (product absorption at 450 nm) and o-aminophenol (product absorption at 430 nm), were employed under the same procedure of pyrogallol.
Using the oxidation of pyrogallol as a model reaction and fixing the total concentration of Hemin to be 5 μM in the mixture, we obtained the catalytic rate of Hemin by monitoring the changes of the absorbance of purpurogallin, the product of Hemin-catalyzed oxidation of pyrogallol. […] The Lineweaver-Burk plots constructed by the reaction initial rates at different pyrogallol concentrations gave the activity of the artificial enzyme. The kinetics of the catalysis of artificial enzyme follows Michaelis-Menten equation, which indicated successful design and generation of an artificial peroxidase by encapsulating hemin into hydrogel. […] Two factors likely contribute to the high activity of Hemin(Phe) in pH 7,4 buffer: (i) localization of hemin on the nanofibers preserves the catalytic species—monomeric hemin; (ii) the mesoporous structure in hydrogel facilitates the substrate across the hydrogel network to access the hemin in the hydrogel.

acid phosphatase = experiment: Visual hydrogelation assay for enzyme inhibitors (conversion of 9 to 10); type: biochemical; conditions: pH=6.0, 37° C., solution-to-gel transition after 30 minutes
Excerpt: FIG. 6 illustrates the design of the visual assay. The precursor, which acts as the substrate of an enzyme, transforms into a hydrogelator when the enzyme catalyzes its conversion. Then, the self-assembly of the hydrogelators in water induces the formation of hydrogel. When inhibitors competitively bind with the active site of the enzyme and block the conversion of the precursor catalyzed by the enzyme, no hydrogel forms. Therefore, the macroscopic solution-to-gel transition (which can be observed visually) of the solution of the precursor reports the inactivation of the enzyme by the inhibitors.
This approach has a unique feature—it enlists water molecules as part of the reporting system. In addition, no spectrometer is required for observing the solution-to-gel phase transition. This simple and inexpensive method may be useful, not only for screening the inhibitors but also, for detecting the presence of enzymes when appropriate precursors are used. To verify the feasibility of the design shown in FIG. 6, a simple amino acid derivative (9), which can be converted into a hydrogelator (10) by dephosphorylation, was used to screen the inhibitors for an acid phosphatase.
Since the acid phosphatase catalyzes the conversion of 9 to 10 and leads to hydrogelation at a pH=6.0 and 37° C., the event of hydrogelation can indicate the activity of inhibitors for the acid phosphatase itself. Pamidronate disodium, Zn^2+, and sodium orthovanadate (Na3VO4) were chosen to estimate their minimum inhibition concentrations for the acid phosphatase. The three compounds were first mixed with the enzyme at a series of concentrations, respectively, followed by the addition of 9 to the solutions 10 minutes after mixing. After an additional 30 minutes of incubation, the solution-to-gel phase transition indicates the minimum inhibition concentration of the compounds. From the changes of rows 2, 3, and 4 in FIG. 7, the minimum inhibition concentrations of Pamidronate disodium, Zn^2+, and sodium orthovanadate (Na3VO4) for the acid phosphatase were determined to be 33 mM, 0.33 mM, and 3.3 mM, respectively.

[4] = target: T1, SHV-1 (broad-spectrum β-lactamase) (Escherichia coli, UniProt P0AD63); experiment: Cell lysate added to solution of precursor 3, sample E; type: biochemical, E. coli; conditions: lysate SHV-1
T1 construct: endogenous in cells; host or cells: E. coli (sonicated lysate)
T1 sequence (P0AD63 22-286): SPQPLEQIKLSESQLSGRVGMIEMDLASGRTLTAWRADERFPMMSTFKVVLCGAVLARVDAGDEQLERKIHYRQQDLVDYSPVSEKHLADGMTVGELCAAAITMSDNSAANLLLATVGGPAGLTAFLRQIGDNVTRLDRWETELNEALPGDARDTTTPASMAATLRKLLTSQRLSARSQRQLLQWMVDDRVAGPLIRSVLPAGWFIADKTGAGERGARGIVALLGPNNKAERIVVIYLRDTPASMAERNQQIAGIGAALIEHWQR
Protocol: (§1) To evaluate whether precursor 3 would respond to β-lactamases in bacteria, solution of precursor 3 was treated with sonicated lysates of E. coli.

[5] = Solution of precursor 3, sample G (only water, no enzyme); type: biochemical; conditions: precursor 3 to form 1 after 6 hours
Protocol: as §1

[6] = system: CTX-M13 (extended-spectrum β-lactamase); experiment: Cell lysate added to solution of precursor 3, sample B; type: biochemical, E. coli
Protocol: as §1

[7] = system: C600 (β-lactamase negative E. coli control); experiment: Cell lysate added to solution of precursor 3, sample A; type: biochemical; conditions: precursor 3 to form 1 after 6 hours
Protocol: as §1

[8] = system: JP995 (β-lactamase negative E. coli control); experiment: Cell lysate added to solution of precursor 3, sample D; type: biochemical; conditions: precursor 3 to form 1 after 6 hours
Protocol: as §1

[9] = target: T2, CTX-M14 (extended-spectrum β-lactamase) (Escherichia coli, UniProt Q9L5C7); experiment: Cell lysate added to solution of precursor 3, sample C; type: biochemical, E. coli
T2 construct: endogenous in cells; host or cells: E. coli (sonicated lysate)
T2 sequence (Q9L5C7 entry or part of it): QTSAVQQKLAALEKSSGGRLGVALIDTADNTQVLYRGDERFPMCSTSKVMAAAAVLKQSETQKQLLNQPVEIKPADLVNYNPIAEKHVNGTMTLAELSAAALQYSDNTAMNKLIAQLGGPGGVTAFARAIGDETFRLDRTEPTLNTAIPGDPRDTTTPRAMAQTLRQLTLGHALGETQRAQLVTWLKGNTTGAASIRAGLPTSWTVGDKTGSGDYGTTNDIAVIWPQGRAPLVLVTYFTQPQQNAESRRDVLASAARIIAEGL
Protocol: as §1

[10] = target: T3, TEM-1 (broad-spectrum β-lactamase) (Escherichia coli, UniProt P62593); type: biochemical, E. coli; conditions: lysate TEM-1
T3 construct: endogenous in cells; host or cells: E. coli (sonicated lysate)
T3 sequence (P62593 24-286 limits assumed): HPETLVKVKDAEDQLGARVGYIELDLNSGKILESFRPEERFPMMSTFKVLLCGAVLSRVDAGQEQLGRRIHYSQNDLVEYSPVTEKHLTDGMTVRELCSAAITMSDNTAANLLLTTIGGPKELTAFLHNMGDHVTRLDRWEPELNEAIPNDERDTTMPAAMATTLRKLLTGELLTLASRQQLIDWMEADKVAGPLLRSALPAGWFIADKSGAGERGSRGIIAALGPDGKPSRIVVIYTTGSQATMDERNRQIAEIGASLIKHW
Protocol: as §1

[11] = precursor 3 to form 1 after 6 hours

With CC(C)[C@H](NC(=O)CCCc1ccc2ccc3cccc4ccc1c2c34)C(=O)N[C@@H](Cc1ccc(O)cc1)C(=O)NCC(=O)NCC(=O)NCC(=O)O [Pyrene-VYGGG] ({Butanoyl(4-pyren-1-yl)}-VYGGG-OH) the solubility in water [1] was “insoluble in water even under basic conditions”.
With O=C(Cc1ccc2ccccc2c1)NC1C(O)OC(CO)C(O)C1O [Nap-D-Glucosamine] the “ability to gel water / form hydrogel” value [2] was “fail to form supramolecular hydrogels”.
With O=C(O)[C@H]1/C(=C/CO)O[C@@H]2CC(=O)N21 [clavulanic acid, reference compound] the “hydrogel formation with β-lactamase and inhibitor” value (β-lactamase; precursor 3 added to β-lactamase and inhibitor) was “failed to yield a hydrogel”.
In the case of CC(C)[C@H](NC(=O)CNC(=O)Cc1cccc2ccccc12)C(=O)NCC(=O)N[C@H](C(=O)N1CCC[C@H]1C(=O)O)C(C)C [Naph-GVGVP] ({Acetyl(1-naphthyl)}-GVGVP-OH), the solubility in water [1] is reported as “either dissolves in water at a pH higher than 4 or becomes a suspension at a lower pH”.
In the case of O=C(Cc1ccc2ccccc2c1)NC(Cc1ccccc1)C(=O)NC(Cc1ccccc1)C(=O)NC1C(O)OC(CO)C(O)C1O [Nap-L-Phe-L-Phe-D-Glucosamine], the “ability to gel water / form hydrogel” value [2] is reported as “fail to form supramolecular hydrogels”.
With C[C@H](NC(=O)CNC(=O)Cc1cccc2ccccc12)C(=O)NCC(=O)N[C@@H](C)C(=O)N[C@@H](CO)C(=O)O [Naph-GAGAS] ({Acetyl(1-naphthyl)}-GAGAS-OH) the solubility in water [1] was “soluble in water even under low pH and high concentration”.
For C=CC1=C(C)c2cc3[n-]c(cc4nc(cc5[n-]c(cc1n2)c(C)c5CCC(=O)O)C(CCC(=O)O)=C4C)c(C)c3C=C.[Cl-].[Fe+3] [Hemin(Free), hemin chloride], the “retention of catalytic ability during reaction” value ([3]; 15 minutes course, water buffer and toluene) was “lost most catalytic ability after 5 min”, the kcat in buffer ([3]; buffer (0.01 M, pH 7.4, phosphate)) was 0.04 s⁻¹ and the kcat in toluene ([3]; toluene) was 0.045 s⁻¹.
[Na+].[Na+].[Na+].[O]=[V]([O-])([O-])[O-] [sodium orthovanadate] gave a minimum inhibition concentration (acid phosphatase) of 3.3 mM.
[Zn+2] [Zn^2+] gave a minimum inhibition concentration (acid phosphatase) of 0.33 mM.
NCCC(O)(P(=O)(O)O)P(=O)(O)O [Pamidronate disodium] showed a minimum inhibition concentration (acid phosphatase) of 33 mM.
For NCC(=O)N[C@@H]1C(=O)N2C(C(=O)O)=C(CSCCNC(=O)[C@H](Cc3ccccc3)NC(=O)[C@H](Cc3ccccc3)NC(=O)Cc3ccc4ccccc4c3)CS[C@H]12 [Precursor 3], the Gelation ([4]; precursor 3 0.35 wt %) was “+ (Gels form in less than 2 hours)”, the “Conversion (%)” value [4, 11] was 65.2% and the “Conversion (%)” value [5] was less than 0.5%. For the same compound, the “Conversion (%)” value ([5]; listed as precursor 3) was less than 0.5%, the Gelation ([6]; precursor 3 0.35 wt %) was “+ (Gels form in less than 2 hours)” and the “Conversion (%)” value [6, 11] was 99.7%. The “Conversion (%)” value [7] was less than 0.5%, the “Conversion (%)” value ([7]; listed as precursor 3) was less than 0.5% and the “Conversion (%)” value [8] was 5.8%. The Gelation ([9]; precursor 3 0.35 wt %) was “+ (Gels form in less than 2 hours)”, the “Conversion (%)” value [9, 11] was 99.5% and the Gelation ([10]; precursor 3 0.35 wt %) was “+ (Gels form in less than 2 hours)”. The “Conversion (%)” value [10, 11] was 84.3%, the “start of hydrogelation (dynamic time sweep)” value (β-lactamase; after addition of the β-lactamases) was “about 22 minutes” and the “precursor 3 transformed into 1 (HPLC)” value (β-lactamase; one hour after addition of β-lactamase, room temperature) was 49.0%. For the same compound, the “conversion of 3 to 1 (HPLC)” value (β-lactamase; β-lactamase and its inhibitor (clavulanic acid), after 12 hours) was 3.4%.
